Test results published in PMC7504466, “In-Vitro and In-Silico Evaluations of Heterocyclic-Containing Diarylpentanoids as Bcl-2 Inhibitors Against LoVo Colorectal Cancer Cells” (Molecules, 2020).

Experiments:
[1] = tested on: SW620 cells; experiment: MTT cytotoxicity assay, SW620 cells; format: cell-based; settings: Homo sapiens, SW-620, 72 h post-treatment, read-out: IC50 (µM) KRAS SW620
Method: (§1) The in-vitro cytotoxic activity of the synthesized compounds on seven human CRC cell lines including KRAS (T84, SW620, LoVo) and BRAF (HT29, NCI-H508, RKO and LS411N) mutated cells were determined by MTT assay as previously described. The IC50 values obtained are summarized in Table 2 in which 5-FU and normal human dermal fibroblasts (NHDF) were used as controls. Meanwhile, a heatmap (Figure 3) was also generated using GraphPad Prism v7.0 (GraphPad Software, La Jolla, CA, USA) to visualize the cytotoxic trends of synthesized compounds graphically.
(§2) A panel of KRAS (T84, SW620 and LoVo) and BRAF (HT29, NCI-H508, RKO and LS411N) mutated human CRC cell lines were grown in Dulbecco’s modified Eagle’s medium (DMEM) containing 10% fetal bovine serum (FBS) and 1% penicillin/streptomycin at 37 °C under 5% CO2 while NHDF cells were cultured in DMEM with 5% FBS under the same condition. The culture medium was replenished every two days until the cells reached 80–90% confluency for further usage. All cell lines (T84, ATCC®CCL-248™; SW620, ATCC®CCL-227™; LoVo, ATCC®CCL-229™; HT-29, ATCC®HTB-38; NCI-H508, ATCC®CCL-253™; RKO, ATCC®CRL-2577; LS411N, ATCC®CRL-2159; NHDF, ATCC® PCS-201-010™) were purchased from American Type culture Collections (ATCC, Manassas, VA, USA).
(§3) LoVo cells (1.5–5 × 10^3 cells/well) were seeded into a 96 well plate and incubated at 37 °C and 5% CO2 atmosphere for 24 h. On the following day, the cell media were replaced with 100 µL of test compounds at various concentration. The final concentration of DMSO in the well is 0.1%. After 72 h of incubation, culture medium was removed and 100 µL of MTT (thiazoyl blue tertrazolium bromide) solution (0.5 mg/mL in culture media) was added. The resultant plates were then further incubated at 37 °C for 4 h. Upon completion, the MTT solution was removed and the formazan salts formed were dissolved in 100 µL of DMSO. The absorbance was recorded with a microplate reader at 570 nm. The IC50 values of tested compounds were calculated from three independent experiments.

[2] = tested on: HT29 cells; experiment: MTT cytotoxicity assay, HT29 cells; format: cell-based; settings: Homo sapiens, HT-29, 72 h post-treatment, read-out: IC50 (µM) BRAF HT29
Method: as §1, §2, §3

[3] = tested on: Bax; experiment: Western blot, Bax; format: cell-based, human; settings: 5 µM, LoVo cells, detectable only after 48 h
Method: (§4) Lovo cells (1.5 × 10^4 cells/cm^2) were seeded in a T75 flask and incubated at 37 °C and 5% CO2 atmosphere overnight. The seeded cells were then treated with selected compounds at 5 µM of 2e for 24 h, 48 h, and 72 h. After treatment, the cells were harvested and lysed with phenylmethanesulfonyl fluoride (PMSF)-containing cell lysis buffer. The lysates were then centrifuged at 13,300× g for 15 min and the supernatant was collected. Protein concentrations of all samples were determined using a BCA assay kit (Thermo Scientific Inc., Waltham, MA, USA). Equal amounts of protein were electrophoresed in 12% and 20% SDS-polyacrylamide gel (SDS-PAGE), and electro-transferred onto a 0.22-μm polyvinyldene difluoride membrane. Each membrane was blocked with 5% (w/v) skim milk at room temperature for 1 h followed by overnight incubation with specific primary antibodies (1:1000) at 4 °C. Subsequently, the respective membrane was washed thrice with TBST (0.05% (v/v) of tween-20) followed by 1 h incubation with secondary antibody (1:10,000). Upon completion, the membrane was washed thrice with 1X Tris-Buffered Saline, 0.1% Tween® 20 Detergent (TBST) and the immune reactive bands were developed using SuperSignal West Dura Extended Duration Substrate (Thermo Scientific Inc., Waltham, MA, USA). […]

[4] = tested on: LoVo cells; experiment: MTT cytotoxicity assay, LoVo cells; format: cell-based; settings: Homo sapiens, 72 h post-treatment, read-out: IC50 (µM) KRAS LoVo
Method: as §1, §2, §3

[5] = tested on: cleaved PARP; experiment: Western blot, cleaved PARP; format: cell-based, human; settings: 5 µM, LoVo cells, after 24 h
Method: as §4

[6] = tested on: NCI-H508 cells; experiment: MTT cytotoxicity assay, NCI-H508 cells; format: cell-based; settings: Homo sapiens, 72 h post-treatment, read-out: IC50 (µM) BRAF NCI-H508
Method: as §1, §2, §3

[7] = tested on: LoVo cells; experiment: Cell apoptosis analysis (Annexin V-PE/7-AAD flow cytometry); format: cell-based, human
Method: LoVo cells (1 × 10^5 cells/well) were seeded into a 6-well plate and incubated at 37 °C and 5% CO2 atmosphere overnight. The seeded cells were then treated with different concentrations of tested compounds for 24, 48 and 72 h. After treatments, cells were trypsinized and washed with PBS followed by the addition of 1× binding buffer (500 μL), Annexin V-PE (5 μL) and 7-AAD (5 μL) solutions. The resulting mixture was then incubated in the dark at 4 °C for 20 min. Upon completion, the mixture was analysed with a flow-cytometer at the PE and APC channel. The values presented are the means ± SD of three independent experiments.

[8] = tested on: Mcl-1; experiment: Western blot, Mcl-1; format: cell-based, human; settings: 5 µM, LoVo cells, up to 72 h
Method: as §4

[9] = tested on: Bcl-xL; experiment: Western blot, Bcl-xL; format: cell-based, human; settings: 5 µM, LoVo cells, up to 72 h
Method: as §4

[10] = tested on: Bad; experiment: Western blot, Bad; format: cell-based, human; settings: 5 µM, LoVo cells, detectable only after 48 h
Method: as §4

[11] = tested on: cleaved caspase-7; experiment: Western blot, cleaved caspase-7; format: cell-based, human; settings: 5 µM, LoVo cells, after 24 h
Method: as §4

For O=C1C(=Cc2ccccc2Br)CSCC1=Cc1ccccc1Br [Compound 2e, 3,5-Bis(2-bromobenzylidene)tetrahydro-4H-thiopyran-4-one], the IC50 [1] was 1.4 µM, the IC50 [2] was 2.1 µM and the Bax expression [3] was “up-regulation”. For the same molecule, the IC50 [4] was 1 µM, the “cleaved PARP level” value [5] was “increased” and the IC50 [6] was 1.1 µM. For the same molecule, the “lowest in vitro effective dose against LoVo cells” value [7] was 2.5 µM, the “cellular apoptosis (annexin V)” value ([7]; 0.625 and 1.25 µM) was “minimal insignificant effects” and the “cellular apoptosis (annexin V)” value ([7]; 2.5 and 5 µM, 24-72 h) was “could induce cellular apoptosis”. The Mcl-1 expression [8] was “remained unaffected”, the Bcl-xL expression [9] was “remained unaffected” and the Bad expression [10] was “up-regulation”. The “cleaved caspase-7 level” value [11] was “increased”.
